Source: article PMC3003761 (ACS chemical biology, 2010)
Read-outs that look alike come from different tables or passages of the source.

Assays:
in vivo = details: male, CD-1, mouse, ip, 3 mg/kg
Shaker-IR KV channel = Shaker-IR KV channel (Drosophila melanogaster, UniProt P08510, DEL6-46); assay: cell-based
[1] = test system: rat phrenic nerve-hemidiaphragm preparations; details: cited from earlier work
[2] = mouse, in vivo
BoNT/A = format: in vivo, mouse; details: n = 10
[3] = mouse, in vivo, ip, 3 mg/kg
[4] = test system: serotype A botulinum neurotoxin-induced paralysis of mouse phrenic nerve-hemidiaphragm preparations

SMILES	Tmax (in vivo) [min]	half-life (in vivo) [min]	Hill coefficient (Shaker-IR KV channel)	IC50 (Shaker-IR KV channel) [µM]	toxicity (distress) after compound alone [2]	Rescue of BoNT/A intoxicated mice (BoNT/A)	Ability to reverse BoNT/A-induced muscle paralysis [4]	also measured
Nc1ccncc1N [Compound 3, 3,4 diaminopyridine, reference compound]	30	20.4	1.04 ± 0.18	26.7 ± 4				
C[n+]1ccc(N)c(N)c1 [Compound 4, 3,4-diamino-1-methylpyridinium]								activity in rat phrenic nerve-hemidiaphragm preparations [1]: inactive
Nc1cncc(N)c1N [Compound 5, 3,4,5-Triaminopyridine]	30	18.6	1.09 ± 0.13	697	no distress was observed	as effective as 3,4-DAP		brain exposure [3]: no detectable brain exposure
c1cc2nc[nH]c2cn1 [Compound 7, 5-azabenzimidazole]							unable to reverse BoNT/A-induced muscle paralysis	
C#CC[n+]1ccc(N)c(N)c1 [Compound 11, 3,4-diamino-1-(prop-2-ynyl)pyridinium]			1.28 ± 0.34		no distress was observed	low efficacy		IC50 (Shaker-IR KV channel; read-out: K0.5 (compound concentration required to achieve 50% inhibition)): 22.2 ± 4.3 µM; AUC(0-infinity) (plasma) [3]: 620 ng·h/mL; Cmax (plasma) [3]: 402 ng/mL; Tmax (plasma) [3]: 30 min; brain exposure as percentage of the plasma exposure [3]: 13%; plasma half-life [3]: 72 min
CC[N+](CC)(CC)CCCc1ccccc1 [Compound 12, triethyl-3-phenylpropylammonium]							apparent neurotoxicity of the compound 12 prevented determination	
